Test results taken from US20250295654A1, “METHODS OF TREATING METABOLIC DISEASES WITH FUSED BICYCLIC PYRAZOLES” (Belite Bio, Inc, priority 2019, published 2025).
Where “and” joins values, the source holds several entries; their conditions need not be identical. Identical values can stand only once. Marks after values point to notes of the source that are not given here.

How the values were obtained:
Type in all cases: in vivo
[1] = Compound 2 single dose rat PK study; details: male Sprague Dawley rats, single iv dose 2 mg/kg; for Tmax: first plasma collection time or observed time of highest plasma concentration
Protocol: A pharmacokinetic study of Compound 2 following a single intravenous or oral dose administration to male Sprague Dawley rats was conducted, the results of which are found in Table 5 and FIGS. 21-24.

[2] = Compound 1 single dose mouse PK study; details: male CD-1 mice, single iv dose 2 mg/kg; first plasma collection time
Protocol: A pharmacokinetic study of Compound 1 following a single intravenous or oral dose administration to male CD-1 mice was conducted, the results of which are found in Table 4 and FIGS. 15-20.

[3] = Compound 1 single dose rat PK study; details: male Sprague Dawley rats, single iv dose 2 mg/kg, first plasma collection time listed as Tmax
Protocol: A pharmacokinetic study of Compound 1 following a single intravenous or oral dose administration to male Sprague Dawley rats was conducted, the results of which are found in Table 3 and FIGS. 9-14.

Tmax ([1]; Mean) | AUCinf ([1]; individual rat, 2 mg/kg) | Cl ([1]; individual rat, 2 mg/kg) | Tmax ([1]; individual rat, 2 mg/kg) | Tmax [2] | Tmax ([3]; Mean) | Tmax ([3]; individual rat) | Structure (SMILES)
13.3 min | 4027 ng·h/mL and 5052 ng·h/mL | 4.13 mL/min/kg and 3.3 mL/min/kg | 4.98 min | – | – | – | CC(=O)N1Cc2[nH]nc(C(=O)N3CCC(c4ccc(F)c(F)c4C(F)(F)F)CC3)c2C1 [Compound 2, 1-(3-(4-(3,4-difluoro-2-(trifluoromethyl)phenyl)piperidine-1-carbonyl)-4,6-dihydropyrrolo[3,4-c]pyrazol-5(1H)-yl)ethan-1-one]
– | – | – | – | 0.083^b hr | 4.98 min | 4.98 min | CC(=O)N1CCc2c(C(=O)N3CCC(c4ccc(F)c(F)c4C(F)(F)F)CC3)n[nH]c2C1 [Compound 1, 1-(3-(4-(3,4-difluoro-2-(trifluoromethyl)phenyl)piperidine-1-carbonyl)-1,4,5,7-tetrahydro-6H-pyrazolo[3,4-c]pyridin-6-yl)ethan-1-one]
